Assay results as given in patent US20050129765A1, “Controlled release of topiramate in liquid dosage forms” (priority 2003, published 2005).

What was measured:
[1] = cited from earlier work
[2] = Drug solubility in various carriers; format: physicochemical

CC1(C)O[C@@H]2[C@@H](CO[C@@]3(COS(N)(=O)=O)OC(C)(C)O[C@@H]23)O1 [topiramate, 2,3:4,5-di-O-isopropylidene-β-D-fructopyranose sulfamate]
solubility (qualitative) ([1]; alkaline solutions containing sodium hydroxide or sodium phosphate, acetone, dimethylsulfoxide and ethanol): soluble
solubility in water ([1]; in water): about 9.8 mg/ml
solubility in carrier ([2]; 20-30% topiramate in 90/10, 80/20 or 70/30 PEG 400/Cremophor EL): completely soluble
solubility in carrier ([2]; 45% topiramate in 100% of PEG400): completely soluble
